Reference: paper doi:10.1101/2023.11.24.568596v1 (biorxiv, 2023)
Each block holds one compound with its values, some of them ahead of it.

Assays:
Settings in all cases: binder
GAK = target: T1, GAK (Homo sapiens, UniProt O14976)
T1 sequence (O14976 1-1311): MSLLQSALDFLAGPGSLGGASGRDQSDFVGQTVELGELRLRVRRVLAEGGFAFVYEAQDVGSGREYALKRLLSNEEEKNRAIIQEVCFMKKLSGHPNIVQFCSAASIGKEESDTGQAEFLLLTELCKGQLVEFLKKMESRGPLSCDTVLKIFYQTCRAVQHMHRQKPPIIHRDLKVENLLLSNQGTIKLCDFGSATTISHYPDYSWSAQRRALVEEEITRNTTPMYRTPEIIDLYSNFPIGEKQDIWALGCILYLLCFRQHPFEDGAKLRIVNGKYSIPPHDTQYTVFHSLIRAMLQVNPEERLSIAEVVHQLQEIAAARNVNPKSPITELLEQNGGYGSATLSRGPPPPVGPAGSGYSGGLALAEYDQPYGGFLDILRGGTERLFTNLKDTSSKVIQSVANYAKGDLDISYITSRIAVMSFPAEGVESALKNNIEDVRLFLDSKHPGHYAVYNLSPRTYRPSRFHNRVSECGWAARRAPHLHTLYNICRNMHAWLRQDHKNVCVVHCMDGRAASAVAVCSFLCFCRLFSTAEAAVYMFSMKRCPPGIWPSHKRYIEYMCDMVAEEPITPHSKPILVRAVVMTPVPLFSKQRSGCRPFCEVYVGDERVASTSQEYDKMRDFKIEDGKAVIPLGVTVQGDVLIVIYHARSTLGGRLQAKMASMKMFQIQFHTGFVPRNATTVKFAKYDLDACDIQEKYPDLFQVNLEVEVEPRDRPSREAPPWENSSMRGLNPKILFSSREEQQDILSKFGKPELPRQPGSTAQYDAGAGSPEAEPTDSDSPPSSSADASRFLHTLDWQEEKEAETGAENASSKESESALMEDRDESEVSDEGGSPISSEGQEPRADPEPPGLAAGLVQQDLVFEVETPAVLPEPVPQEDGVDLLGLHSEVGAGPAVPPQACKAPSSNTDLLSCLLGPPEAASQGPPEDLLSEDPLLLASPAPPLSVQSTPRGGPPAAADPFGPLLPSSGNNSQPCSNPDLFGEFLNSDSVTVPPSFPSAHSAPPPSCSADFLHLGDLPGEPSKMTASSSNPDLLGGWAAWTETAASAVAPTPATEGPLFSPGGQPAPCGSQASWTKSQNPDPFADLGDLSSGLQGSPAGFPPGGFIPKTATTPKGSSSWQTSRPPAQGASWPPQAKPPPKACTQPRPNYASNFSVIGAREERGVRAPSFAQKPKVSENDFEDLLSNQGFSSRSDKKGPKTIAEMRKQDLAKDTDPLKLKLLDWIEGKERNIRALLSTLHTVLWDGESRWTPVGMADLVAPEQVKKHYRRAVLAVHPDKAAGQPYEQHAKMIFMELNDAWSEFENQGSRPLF

PAK4 = PAK4 (Homo sapiens, UniProt O96013)
CaMK4 = target: T2, CaMK4 (Homo sapiens, UniProt Q16566)
T2 sequence (Q16566 1-473): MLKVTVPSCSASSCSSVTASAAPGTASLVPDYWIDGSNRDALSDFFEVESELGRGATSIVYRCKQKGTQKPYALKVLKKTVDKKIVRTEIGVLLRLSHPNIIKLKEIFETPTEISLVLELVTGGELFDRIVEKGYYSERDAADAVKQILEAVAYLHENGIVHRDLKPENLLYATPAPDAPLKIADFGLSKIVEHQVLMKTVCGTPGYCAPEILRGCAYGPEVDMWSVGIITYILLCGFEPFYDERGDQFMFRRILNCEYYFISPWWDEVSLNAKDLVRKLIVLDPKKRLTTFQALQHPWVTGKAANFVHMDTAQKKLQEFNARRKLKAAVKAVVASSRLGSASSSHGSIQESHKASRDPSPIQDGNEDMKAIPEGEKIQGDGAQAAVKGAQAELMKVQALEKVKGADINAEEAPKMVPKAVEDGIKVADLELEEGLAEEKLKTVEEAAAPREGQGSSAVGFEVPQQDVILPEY

MELK = MELK (Homo sapiens, UniProt Q14680)
DCAMKL1 = target: T3, DCAMKL1 (Homo sapiens, UniProt O15075)
T3 sequence (O15075 1-740): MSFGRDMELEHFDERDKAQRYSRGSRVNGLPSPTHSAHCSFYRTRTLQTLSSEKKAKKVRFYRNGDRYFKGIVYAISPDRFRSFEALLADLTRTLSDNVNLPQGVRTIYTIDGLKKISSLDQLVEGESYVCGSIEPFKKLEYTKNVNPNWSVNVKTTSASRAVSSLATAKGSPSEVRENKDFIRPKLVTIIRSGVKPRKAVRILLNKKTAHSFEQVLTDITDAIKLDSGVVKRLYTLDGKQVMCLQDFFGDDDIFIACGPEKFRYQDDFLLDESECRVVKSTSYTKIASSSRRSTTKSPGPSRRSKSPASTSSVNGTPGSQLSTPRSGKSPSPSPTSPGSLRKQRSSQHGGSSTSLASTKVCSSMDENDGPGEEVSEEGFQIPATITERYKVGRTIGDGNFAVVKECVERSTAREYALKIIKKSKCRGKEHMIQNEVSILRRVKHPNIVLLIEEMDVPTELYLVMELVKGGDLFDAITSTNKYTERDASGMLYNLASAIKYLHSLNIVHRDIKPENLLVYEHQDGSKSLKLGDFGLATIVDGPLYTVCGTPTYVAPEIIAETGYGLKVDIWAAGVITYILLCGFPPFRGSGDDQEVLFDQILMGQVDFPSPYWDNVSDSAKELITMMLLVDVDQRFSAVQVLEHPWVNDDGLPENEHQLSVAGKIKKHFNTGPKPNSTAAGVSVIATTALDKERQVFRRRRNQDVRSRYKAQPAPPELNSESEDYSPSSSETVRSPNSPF

BRD4 = BRD4 (Homo sapiens, UniProt O60885)
CaMK2d = CaMK2d (Homo sapiens, UniProt Q13557)
Sequence of CaMK2d (Q13557 whole entry): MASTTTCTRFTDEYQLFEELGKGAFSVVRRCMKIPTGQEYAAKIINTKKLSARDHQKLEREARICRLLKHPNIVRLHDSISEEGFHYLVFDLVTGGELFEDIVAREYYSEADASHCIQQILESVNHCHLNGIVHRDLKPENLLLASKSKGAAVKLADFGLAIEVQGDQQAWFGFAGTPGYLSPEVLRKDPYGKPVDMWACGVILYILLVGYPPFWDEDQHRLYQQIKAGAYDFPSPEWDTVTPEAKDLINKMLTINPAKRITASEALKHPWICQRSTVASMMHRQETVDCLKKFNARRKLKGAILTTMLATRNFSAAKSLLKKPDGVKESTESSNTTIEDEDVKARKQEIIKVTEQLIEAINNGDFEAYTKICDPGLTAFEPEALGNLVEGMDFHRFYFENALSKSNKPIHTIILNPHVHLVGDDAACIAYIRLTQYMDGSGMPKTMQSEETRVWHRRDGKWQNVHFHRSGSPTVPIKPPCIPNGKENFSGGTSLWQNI

Sequence of MELK (Q14680 whole entry): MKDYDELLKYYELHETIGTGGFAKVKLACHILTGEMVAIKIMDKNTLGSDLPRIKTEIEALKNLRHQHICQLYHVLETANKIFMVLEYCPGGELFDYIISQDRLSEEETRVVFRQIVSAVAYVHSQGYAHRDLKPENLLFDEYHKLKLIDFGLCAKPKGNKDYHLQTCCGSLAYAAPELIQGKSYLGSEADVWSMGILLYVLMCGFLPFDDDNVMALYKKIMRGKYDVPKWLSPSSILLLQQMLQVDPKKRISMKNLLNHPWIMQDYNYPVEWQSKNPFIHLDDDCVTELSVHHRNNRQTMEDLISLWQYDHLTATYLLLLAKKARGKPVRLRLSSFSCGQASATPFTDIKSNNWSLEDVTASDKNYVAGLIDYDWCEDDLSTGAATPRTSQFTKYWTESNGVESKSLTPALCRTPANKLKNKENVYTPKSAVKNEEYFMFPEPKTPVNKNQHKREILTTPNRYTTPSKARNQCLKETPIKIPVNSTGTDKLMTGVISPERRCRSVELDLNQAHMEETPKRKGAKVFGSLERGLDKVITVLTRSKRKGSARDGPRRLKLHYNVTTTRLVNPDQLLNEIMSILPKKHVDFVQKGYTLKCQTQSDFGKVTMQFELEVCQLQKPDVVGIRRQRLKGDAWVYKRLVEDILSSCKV
Sequence of PAK4 (O96013 whole entry): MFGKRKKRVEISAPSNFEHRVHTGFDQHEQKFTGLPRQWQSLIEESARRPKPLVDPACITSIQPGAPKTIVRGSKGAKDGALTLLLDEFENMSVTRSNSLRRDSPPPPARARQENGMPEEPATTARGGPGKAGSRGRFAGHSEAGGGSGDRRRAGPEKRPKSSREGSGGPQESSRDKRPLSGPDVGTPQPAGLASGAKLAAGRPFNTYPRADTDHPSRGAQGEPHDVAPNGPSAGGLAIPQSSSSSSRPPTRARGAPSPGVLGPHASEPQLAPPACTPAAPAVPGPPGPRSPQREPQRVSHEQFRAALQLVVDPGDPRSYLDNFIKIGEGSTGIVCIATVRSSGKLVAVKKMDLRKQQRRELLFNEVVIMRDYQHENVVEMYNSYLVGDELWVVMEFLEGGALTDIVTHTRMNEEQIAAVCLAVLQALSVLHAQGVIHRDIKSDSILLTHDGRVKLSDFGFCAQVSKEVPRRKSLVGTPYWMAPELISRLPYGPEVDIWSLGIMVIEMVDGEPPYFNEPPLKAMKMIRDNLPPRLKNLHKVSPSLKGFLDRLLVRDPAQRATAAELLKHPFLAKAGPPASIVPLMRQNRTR

ΔTm 22 (GAK): 9.7 °C
ΔTm 22 (PAK4): 4.7 °C
ΔTm 22 (CaMK4): 4.8 °C
ΔTm 22 (MELK): 8.5 °C
ΔTm 22 (DCAMKL1): 0.7 °C
ΔTm 22 (BRD4): 0.0 °C
ΔTm 22 (CaMK2d): 0.0 °C
Structure (SMILES): CNc1ncc2cc(-c3ccc(-c4cccc(C)n4)cc3Cl)c(=O)n(CCC3CCNCC3)c2n1 [compound 22, 6-(2-Chloro-4-(6-methylpyridin-2-yl)phenyl)-2-(methylamino)-8-(2-(piperidin-4-yl)ethyl)pyrido[2,3-d]pyrimidin-7(8H)-one]

ΔTm MRLW5 (20) (GAK): 7.7 °C
ΔTm MRLW5 (20) (PAK4): 4.8 °C
ΔTm MRLW5 (20) (CaMK4): 2.9 °C
ΔTm MRLW5 (20) (MELK): 8.0 °C
ΔTm MRLW5 (20) (DCAMKL1): 1.0 °C
ΔTm MRLW5 (20) (BRD4): -0.7 °C
ΔTm MRLW5 (20) (CaMK2d): 0.1 °C
Structure (SMILES): CNc1ncc2cc(-c3ccc(-c4cccc(C)n4)cc3Cl)c(=O)n(CCCCN)c2n1 [compound 20, MRLW5]

ΔTm 25 (GAK): 6.9 °C
ΔTm 25 (PAK4): 5.5 °C
ΔTm 25 (CaMK4): 5.4 °C
ΔTm 25 (MELK): 2.4 °C
ΔTm 25 (DCAMKL1): 0.1 °C
ΔTm 25 (BRD4): -2.9 °C
ΔTm 25 (CaMK2d): -0.2 °C
Structure (SMILES): Cc1cccc(-c2ccc(-c3cc4cnc(NCCCc5ccc(N)cc5)nc4n(CCCCN)c3=O)c(Cl)c2)n1 [compound 25, 8-(4-Aminobutyl)-2-((3-(4-aminophenyl)propyl)amino)-6-(2-chloro-4-(6-methylpyridin-2-yl)phenyl)pyrido[2,3-d]pyrimidin-7(8H)-one]

ΔTm MR26 (26) (GAK): 3.6 °C
ΔTm MR26 (26) (PAK4): 2.4 °C
ΔTm MR26 (26) (CaMK4): 2.2 °C
ΔTm MR26 (26) (MELK): 5.0 °C
ΔTm MR26 (26) (DCAMKL1): -2.0 °C
ΔTm MR26 (26) (BRD4): -1.2 °C
ΔTm MR26 (26) (CaMK2d): -0.1 °C
Structure (SMILES): Cc1cccc(-c2ccc(-c3cc4cnc(NCCCN5CCOCC5)nc4n(CCCCN)c3=O)c(Cl)c2)n1 [compound 26, MR26]

ΔTm 23 (GAK): 9.3 °C
ΔTm 23 (PAK4): 4.5 °C
ΔTm 23 (CaMK4): 6.9 °C
ΔTm 23 (MELK): 10.4 °C
ΔTm 23 (DCAMKL1): 4.6 °C
ΔTm 23 (BRD4): -1.1 °C
ΔTm 23 (CaMK2d): -0.2 °C
Structure (SMILES): CNc1ncc2cc(-c3ccc(-c4cccc(C)n4)cc3Cl)c(=O)n(C[C@H]3CC[C@H](N)CC3)c2n1 [compound 23, 23]

ΔTm MR24 (24) (GAK): 3.9 °C
ΔTm MR24 (24) (PAK4): 2.2 °C
ΔTm MR24 (24) (CaMK4): 1.2 °C
ΔTm MR24 (24) (MELK): 5.5 °C
ΔTm MR24 (24) (DCAMKL1): -2.0 °C
ΔTm MR24 (24) (BRD4): -1.7 °C
ΔTm MR24 (24) (CaMK2d): -0.2 °C
Structure (SMILES): Cc1cccc(-c2ccc(-c3cc4cnc(NC(CO)CO)nc4n(CCCCN)c3=O)c(Cl)c2)n1 [compound 24, 8-(4-Aminobutyl)-6-(2-chloro-4-(6-methylpyridin-2-yl)phenyl)-2-((1,3-dihydroxypropan-2-yl)amino)pyrido[2,3-d]pyrimidin-7(8H)-one]
